# Laboratory results from ChEMBL document CHEMBL1201862, “PubChem BioAssay data set” (2004).
# The source made the active and inactive calls.
# How the values were obtained:
# [1] = Trypanosoma cruzi growth suppression in host cells – NIH3T3 host cells, beta-gal luminescence, confirmation (AID 2044); type: functional, cell-based;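 further: intracellular parasites grown in NIH/3T3 mouse fibroblasts as host cells; luminescent beta-galactosidase reporter signal from transgenic T. cruzi replicating inside host cells; inhibitors lower the luminescence signal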
# [2] = microbe, parasite or virus in culture; type: functional; settings: Mycobacterium tuberculosis
# [3] = NIH3T3 cell viability loss – ATP luminescence, mouse fibroblasts, counter-screen, dose response (AID 2010); type: functional, cell-based;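 further: cells exposed to compound for about 90 hours before reading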
# [4] = target: FAD-linked sulfhydryl oxidase ALR (Homo sapiens, UniProt P55789); assay: ALR-catalysed DTT oxidation blockers – biochemical, H2O2 detection, luminescence, cherry-pick, dose response (AID 493248)
# [5] = target: T1, Rac GTPase-activating protein 1 (Homo sapiens, UniProt Q9H0H5); assay: blockers of MgcRacGAP-driven Rac1 GTP hydrolysis – biochemical, ADP Hunter fluorescence, primary and confirmatory, confirmation (AID 624330); type: functional
# T1 sequence (Q9H0H5 whole entry): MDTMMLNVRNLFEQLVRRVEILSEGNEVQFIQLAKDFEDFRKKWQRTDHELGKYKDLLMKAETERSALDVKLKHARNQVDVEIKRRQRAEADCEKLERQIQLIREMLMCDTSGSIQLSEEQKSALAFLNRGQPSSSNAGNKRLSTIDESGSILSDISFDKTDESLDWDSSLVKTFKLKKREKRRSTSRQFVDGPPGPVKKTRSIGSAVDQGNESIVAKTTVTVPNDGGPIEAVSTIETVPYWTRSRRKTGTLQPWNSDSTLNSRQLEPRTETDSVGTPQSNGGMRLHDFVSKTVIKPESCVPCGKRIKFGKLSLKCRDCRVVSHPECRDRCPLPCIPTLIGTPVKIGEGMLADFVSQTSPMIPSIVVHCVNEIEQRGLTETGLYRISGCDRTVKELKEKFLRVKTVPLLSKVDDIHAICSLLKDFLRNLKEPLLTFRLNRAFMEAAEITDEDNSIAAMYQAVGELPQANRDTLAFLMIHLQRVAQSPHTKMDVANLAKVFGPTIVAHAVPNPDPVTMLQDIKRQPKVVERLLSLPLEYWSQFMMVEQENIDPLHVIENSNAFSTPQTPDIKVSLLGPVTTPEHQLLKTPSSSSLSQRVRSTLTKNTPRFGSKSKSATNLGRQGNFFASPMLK
# [6] = NIH-3T3 fibroblast cytotoxicity, dose response, cytotoxicity control, cell-based, fluorescence, Alamar Blue, secondary assay (AID 2327); type: functional;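 further: NIH-3T3 mouse fibroblasts cultured with fluconazole at 8 µg/mL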
# [7] = fluconazole-exposed Candida albicans growth modulators – fluorescence, retest, confirmation (AID 2467); type: functional, cell-based
# Cytochrome P450 2D6 = Cytochrome P450 2D6 (Homo sapiens, UniProt P10635);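 further: CYP2D6 member of a cytochrome P450 panel assay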
# Cytochrome P450 2C9 = Cytochrome P450 2C9 (Homo sapiens, UniProt P11712)
# [8] = target: T2, Heat shock factor protein 1 (Mus musculus, UniProt P38532); assay: enhancement of HSF1-driven luciferase signal – cell-based, NIH3T3, luminescence, dose retest, confirmation (AID 435004); type: functional;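 further: stress induced by proteasome inhibitor MG132 added 30 min after compound; luciferase reporter driven by HSF1 response element in NIH3T3 cells; actives raise luminescence as potentiators of the MG132 stress response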
# T2 sequence (P38532 whole entry): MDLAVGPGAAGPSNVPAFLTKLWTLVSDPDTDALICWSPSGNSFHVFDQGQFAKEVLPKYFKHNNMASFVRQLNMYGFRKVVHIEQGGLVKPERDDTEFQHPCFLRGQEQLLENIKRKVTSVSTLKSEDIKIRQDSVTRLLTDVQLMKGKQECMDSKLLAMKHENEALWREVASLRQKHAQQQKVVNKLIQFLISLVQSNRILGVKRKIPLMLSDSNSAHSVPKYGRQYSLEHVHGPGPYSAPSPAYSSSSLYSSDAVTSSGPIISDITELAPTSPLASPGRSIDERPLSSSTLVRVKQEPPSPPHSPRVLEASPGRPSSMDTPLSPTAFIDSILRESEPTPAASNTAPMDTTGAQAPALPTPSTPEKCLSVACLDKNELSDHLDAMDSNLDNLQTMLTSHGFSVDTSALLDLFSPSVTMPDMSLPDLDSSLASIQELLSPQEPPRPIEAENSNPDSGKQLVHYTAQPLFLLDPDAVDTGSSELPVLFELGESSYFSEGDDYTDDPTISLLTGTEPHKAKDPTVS
# INS1 = assay: INS-1E survival protection against cytokine death – cell-based, luminescence, retest, dose response (AID 449756); type: functional; settings: Rattus norvegicus;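 further: cell death triggered by IL-1 beta plus TNF-alpha plus IFN-gamma mixture; protective hits raise ATP signal compared with cytokine alone wells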
# [9] = Luminescence Cell-Based Dose Retest to Confirm Inhibitors of Cancer Stem Cells. [Related pubchem assays (depositor defined):AID2717, AID2721]; type: functional; settings: Homo sapiens
# [10] = luciferase reporter signal suppression in cells – H4 neuroglioma cells, luminescence, dose response (AID 1990); type: functional, cell-based
# [11] = Luminescence Cell-Based Dose Response HTS to Identify Inhibitors of 5'UTR Stem-Loop Driven Prion Protein mRNA Translation in H4 Neuroglioblastoma Cells. [Related pubchem assays: 1827 (Project Summary), 1813 (Primary HTS)]; type: functional
# [12] = alpha-synuclein stem-loop luciferase translation blockers – H4 neuroglioma cells, luminescence, confirmation (AID 1988); type: functional, cell-based
# [13] = viability of uninfected HEp-2 cells – cell-based, HTS, cytotoxicity control for RSV inhibitor project, dose response (AID 2410); type: functional; settings: human respiratory syncytial virus
# Cytochrome P450 2C19 = Cytochrome P450 2C19 (Homo sapiens, UniProt P33261); assay: Cytochrome panel assay with activity outcomes. Panel member name: p450-cyp2c19 Compounds with AC50 equal or less than 10 uM are considered active; type: functional; settings: read-out: AC50
# [14] = Luminescence Cell-Based Dose Confirmation HTS to Identify Activators of 5'UTR Stem-Loop Driven Alpha-Synuclein mRNA Translation in H4 Neuroglioblastoma Cells. [Related pubchem assays: 1829 (Project Summary), 1814 (Primary HTS)]; type: functional
# [15] = Luminescence Cell-Based Dose Response HTS to Identify Activators of Luciferase Translation or Activity in H4 […] Cells. [Related pubchem assays: 1829 (Project Summary), 1814 (Primary HTS)]; type: functional
# H4 = assay: Luminescence Cell-Based Dose Response HTS to Identify Activators of 5'UTR Stem-Loop Driven Prion Protein mRNA Translation in H4 Neuroglioblastoma Cells. [Related pubchem assays: 1829 (Project Summary), 1814 (Primary HTS)]; type: functional; settings: Homo sapiens
# Chain of FAD-linked sulfhydryl oxidase ALR (P55789 whole entry): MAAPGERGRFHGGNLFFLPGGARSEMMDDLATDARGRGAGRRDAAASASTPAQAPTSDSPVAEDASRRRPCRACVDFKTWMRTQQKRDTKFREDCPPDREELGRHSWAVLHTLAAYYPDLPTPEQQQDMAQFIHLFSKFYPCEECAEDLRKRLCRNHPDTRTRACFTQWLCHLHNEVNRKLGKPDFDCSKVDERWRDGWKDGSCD
# Chain of Cytochrome P450 2D6 (P10635 whole entry): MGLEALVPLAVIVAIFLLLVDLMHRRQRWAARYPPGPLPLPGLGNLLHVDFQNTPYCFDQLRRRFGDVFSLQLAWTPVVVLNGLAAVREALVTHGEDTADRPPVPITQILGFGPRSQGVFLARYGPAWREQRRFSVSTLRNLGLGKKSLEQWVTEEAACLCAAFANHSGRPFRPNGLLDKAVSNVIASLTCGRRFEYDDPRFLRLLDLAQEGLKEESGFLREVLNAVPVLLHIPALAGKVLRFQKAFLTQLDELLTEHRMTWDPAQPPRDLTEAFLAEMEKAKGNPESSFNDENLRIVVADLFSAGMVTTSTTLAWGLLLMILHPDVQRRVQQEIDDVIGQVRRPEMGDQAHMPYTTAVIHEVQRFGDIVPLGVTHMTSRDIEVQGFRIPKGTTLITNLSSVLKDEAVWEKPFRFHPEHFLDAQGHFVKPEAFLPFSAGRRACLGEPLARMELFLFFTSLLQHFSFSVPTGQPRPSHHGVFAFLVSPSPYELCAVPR
# Chain of Cytochrome P450 2C19 (P33261 whole entry): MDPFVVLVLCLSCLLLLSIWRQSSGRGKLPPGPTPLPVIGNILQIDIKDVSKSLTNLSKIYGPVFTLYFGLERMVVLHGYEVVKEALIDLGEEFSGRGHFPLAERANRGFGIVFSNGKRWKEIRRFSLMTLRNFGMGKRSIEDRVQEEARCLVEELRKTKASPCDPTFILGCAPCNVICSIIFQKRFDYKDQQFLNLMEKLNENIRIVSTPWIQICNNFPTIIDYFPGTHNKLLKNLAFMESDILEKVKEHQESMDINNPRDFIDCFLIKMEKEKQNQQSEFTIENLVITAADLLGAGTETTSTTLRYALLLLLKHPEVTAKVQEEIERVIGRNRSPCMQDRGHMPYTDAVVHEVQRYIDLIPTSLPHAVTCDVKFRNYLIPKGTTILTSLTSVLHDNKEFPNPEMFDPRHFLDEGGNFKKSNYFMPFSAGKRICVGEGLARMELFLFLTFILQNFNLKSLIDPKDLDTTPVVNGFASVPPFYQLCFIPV
# Chain of Cytochrome P450 2C9 (P11712 whole entry): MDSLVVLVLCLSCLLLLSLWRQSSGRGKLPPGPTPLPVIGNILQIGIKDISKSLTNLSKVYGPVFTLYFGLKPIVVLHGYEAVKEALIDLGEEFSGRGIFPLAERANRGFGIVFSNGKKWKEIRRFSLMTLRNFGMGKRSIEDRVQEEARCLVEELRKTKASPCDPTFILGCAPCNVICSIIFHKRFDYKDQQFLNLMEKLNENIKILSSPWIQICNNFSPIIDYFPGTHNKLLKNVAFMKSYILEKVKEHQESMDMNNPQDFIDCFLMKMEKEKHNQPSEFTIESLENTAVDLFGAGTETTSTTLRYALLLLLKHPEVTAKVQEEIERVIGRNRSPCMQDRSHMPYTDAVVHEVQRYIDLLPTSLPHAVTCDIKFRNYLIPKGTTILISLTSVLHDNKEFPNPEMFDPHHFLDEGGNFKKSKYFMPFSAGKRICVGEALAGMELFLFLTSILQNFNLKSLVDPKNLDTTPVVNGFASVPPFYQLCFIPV
smiles,measurement,setting,value
COc1ccccc1-c1cc(C(=O)NC2CCN(C)CC2)c2ccc(Cl)c(C)c2n1,EC50,[1],1.4 µM (active)
same,CC50,[2],7.01 µM (active)
same,EC50,[3],> 60 µM (not active)
COc1cc(/C=N/NC(=O)CN(Cc2ccco2)S(=O)(=O)c2ccccc2)ccc1O,AC50,[4],1.13 µM (active)
same,IC50,[5],40 µM (active)
Cc1nc(SCc2cccc(F)c2)nc(O)c1C#N,AC50,[4],9.69 µM (active)
Cc1ccn(Cc2nnc(S)n2Cc2ccccc2)n1,AC50,[4],8.59 µM (active)
O=C(CN1C(=O)C2CC=CCC2C1=O)Nc1nc2ccc(F)cc2s1 (configuration not stated),AC50,[4],0.494 µM (active)
COc1ccc(-c2cc(-c3c(O)c(OC)c4occc4c3OC)[nH]n2)cc1OC,EC50,[6],> 160 µM (inactive)
same,EC50,[7],> 38 µM (not active)
same,AC50,Cytochrome P450 2D6,25.1 µM (inconclusive)
same,AC50,Cytochrome P450 2C9,39.8 µM (inconclusive)
CN(CC(=O)Nc1ccc(F)c(F)c1F)c1cnccn1,CC50,[2],23.5 µM (active)
CCc1ccccc1N=C(S)NNC(=O)c1ccccc1Cl,EC50,[6],> 150 µM (inactive)
same,EC50,[7],1.93 µM (active)
Cc1ccc(C)c(CN2C(=O)COc3ccccc32)c1,EC50,[8],> 260 µM (inactive)
COc1ccc(C2CC(=O)c3cnc(N4CCc5ccccc54)nc3C2)cc1OC (configuration not stated),EC50,[8],> 260 µM (inactive)
C[C@@H]1C(NC(=O)c2ccccc2)CC2CC1C2(C)C (some centres not stated),EC50,[8],> 260 µM (inactive)
O=S(=O)(Nc1ccc(N2CCCCC2)cc1)c1ccc(F)c(F)c1,AC50,[4],4.17 µM (active)
O=C(NCCc1ccccc1)[C@@H]1CC=C[C@@H]2CCN(Cc3ccc(Cl)c(Cl)c3)C(=O)[C@@H]21,CC50,[2],34.4 µM (active)
same,AC50,INS1,6.35 µM (active)
CC(=O)n1c2c(c3ccccc31)OC(N)=C(C#N)C2c1cccc(Cl)c1Cl (configuration not stated),AC50,[9],1.57 µM (active)
same,EC50,[8],42.4 µM (active)
C=Cc1ncc(OC)c2c1[nH]c1ccccc12,EC50,[8],9.2 µM (active)
S=C(NC1CCCCC1)NC1CC2C=CC1C2 (configuration not stated),EC50,[8],> 260 µM (inactive)
CN(C)c1cc[n+](CC(=O)Nc2ccc(Oc3ccccc3)cc2)cc1,EC50,[10],17.1 µM (active)
same,EC50,[11],> 120 µM (not active)
same,EC50,[12],14.9 µM (active)
same,AC50,INS1,4.17 µM (active)
CCC(O)CC(C(=O)NNc1ccccc1)C(=O)NNc1ccccc1 (configuration not stated),EC50,[6],20.6 µM (active)
same,EC50,[7],> 38 µM (not active)
C/C(=N/NC(=O)c1ccccc1O)c1ccc(N2C(=O)C3CCCCC3C2=O)cc1 (configuration not stated),EC50,[6],> 160 µM (inactive)
same,EC50,[7],> 38 µM (not active)
O=C1c2ccccc2C(=O)N1CC(O)COc1ccc(Br)cc1 (configuration not stated),EC50,[8],64.3 µM (active)
CCCCNC(=O)/C(=C\c1ccc([N+](=O)[O-])o1)NC(=O)c1ccccc1,EC50,[6],> 150 µM (inactive)
same,EC50,[7],0.265 µM (active)
same,EC50,[1],0.863 µM (active)
same,EC50,[3],> 60 µM (inconclusive)
CC(C)=NN1C(=O)c2ccccc2NC1(C)C,EC50,[8],> 260 µM (inactive)
COc1ccccc1N1CCN(CCCCOc2cccc3ccccc23)CC1,CC50,[2],> 40 µM (active)
Oc1ccc(/C(Cc2ccccn2)=N\Nc2ccccc2)c(O)c1,AC50,[4],0.332 µM (active)
COCCNC(=O)NC12CC3CC(CC(C3)C1)C2,EC50,[6],> 160 µM (inconclusive)
same,EC50,[7],> 38 µM (not active)
CC(=O)COc1cccc2ccc(/C=C/c3ccc(Br)s3)nc12,CC50,[13],45.4 µM (active)
same,EC50,[8],60.9 µM (active)
CCN(CCNC(=O)C1CCN(S(=O)(=O)CC)CC1)c1ccccc1,AC50,[4],0.013 µM (active)
O=C(CN(C(=O)c1csnn1)c1ccc(F)c(Cl)c1)NCc1ccc(F)cc1,EC50,[8],> 260 µM (inactive)
O=C1C(=CNCCN2CCNCC2)C(=O)N(C2CCCCC2)C(=O)N1C1CCCCC1,CC50,[2],33.5 µM (active)
COc1ccc(-c2nc(Cn3c(SCc4ccc(F)cc4)nc4ccncc43)c(C)o2)cc1OC,EC50,[8],34.7 µM (active)
Cn1c(=O)cc(OCCCC(=O)Nc2cccnc2)c2ccccc21,EC50,[6],> 160 µM (inactive)
same,EC50,[7],> 38 µM (not active)
same,AC50,Cytochrome P450 2C19,20 µM (inconclusive)
same,AC50,Cytochrome P450 2D6,10 µM (inconclusive)
CCCc1cn(S(=O)(=O)c2ccc(OC)cc2OC)nc1N,AC50,[4],9.53 µM (active)
Cc1cc2c(cc1C)-c1nnnn1C(C)(C)C2,EC50,[8],> 260 µM (inactive)
O=C(NNc1cccc(Cl)c1)c1cccnc1Cl,EC50,[6],24.8 µM (active)
same,EC50,[7],> 38 µM (not active)
same,AC50,[4],4.14 µM (active)
O=C(Cn1cccn1)N1CCCC(Nc2ccc(F)c(F)c2)C1 (configuration not stated),AC50,[4],1.92 µM (active)
O=[N+]([O-])c1ccc(C2[C@H]3C(c4ccccc4)=NC4(CCCC4)N23)cc1 (some centres not stated),EC50,[6],> 150 µM (inactive)
same,EC50,[7],> 38 µM (not active)
COC(=O)c1cc(-c2c(C)nn(-c3ccccc3)c2C)[nH]n1,EC50,[14],11.8 µM (active)
same,EC50,[15],11.5 µM (active)
same,EC50,H4,11.2 µM (active)
same,AC50,[4],1.2 µM (active)
COCCCNC(=O)/C(C#N)=C/c1c(N2CCN(c3cccc(Cl)c3)CC2)nc2c(C)cccn2c1=O,CC50,[2],> 40 µM (active)
O=C1CSC(=S)N1/N=C/c1cccc(C(F)(F)F)c1,EC50,[8],> 260 µM (inactive)
